Key:
[1] = measurement of the relative dielectric constant ε of the peptide in water in a measuring capacitor; type: physicochemical; conditions: dissolved in water, 1.14 mM, 4 microlitres, t=23° C.
Procedure: According to further variant for the detection of posttranslational activities, the dielectric constant (permittivity) of a liquid sample with a sensor is measured. As is evident from FIG. 3A, the sample is located in a detection cell (measuring cell 11) serving as a capacitor. The introduction of a polarizing dielectric between the capacitor plates reduces the electric field intensity in vacuum E0 to P/ε0: E=E0−P/ε0 (4) where […] and P is the induced polarization of the dielectric with dielectric constant ε.
The polypeptides (S1) or (S2) dissolved in water have been placed as a dielectric between the electrode plates of the measuring capacitor (measuring cell 11), see FIG. 3A. Polypeptide ELDVPIPGRFDRRVSVAAD (S1) is a specific substrate for protein kinase A which catalyses the phosphorylation of serine. Phosphatase PP2B implements the dephosphorylation of serine of the polypeptide ELDVPIPGRFDRRVpSVAAD (S2). […]
Regarding the detection of peptide modification in tests through the measurement of the relative dielectric constant ε, the following should be added: four microlitres of samples, each containing the polypeptide S1 (unphosphorylated) or S2 (phosphorylated) (table 1), dissolved in water to a concentration of 1.14 mM, are directly introduced between the electrode plates of a measuring capacitor. The dielectric constant ε is measured at a temperature of t=23° C. […]

[2] = measurement of the frequency shift of an oscillator with the peptide sample as core of the induction coil; type: physicochemical; conditions: 150 μL sample, 1.14M in water, t=22° C., f0=5342.9 kHz; S2 instead of S1
Description: According to a further variant of the method for the detection of posttranslational activities, the polypeptides (S1) or (S2) dissolved in water and used as substrates are located in a measuring cell with an inductivity of L and a capacitance of C which functions as an oscillator (FIG. 5). The frequency ω can be determined by […] which can be measured to a high degree of accuracy (10^−5).
For the detection of peptide modification through the measurement of the frequency shift of an oscillator, an experiment was carried out as follows:
A tube containing 150 μL of samples with unphosphorylated peptide S1 or phosphorylated peptide S2 (concentration […] in water) was placed as the core in an induction coil of an oscillator. Frequency f was measured at temperature t=22° C., f0=5342.9 kHz.

Substance | dielectric constant ε [1] | oscillator frequency change [2]
ELDVPIPGRFDRRVpSVAAD [Sensor S2] | 70 | distinct reduction in frequency
ELDVPIPGRFDRRVSVAAD [Sensor S1, synthesized polypeptide sensor, specific substrate for protein kinase A] | 76 | 
